Reference: US20100062046A1, “POLYMORPHS OF NICOTINIC INTERMEDIATES” (priority 2006, published 2010)
One block for each compound: values may come before it.

Assays:
Assay type in all cases: physicochemical
[1] = Hygroscopicity of crystalline forms; settings: crystalline solid
[2] = Relative stability of crystalline forms, studies in dichloromethane, ethyl acetate, methanol and toluene; settings: compound II
Procedure: Form B was obtained mainly from fast evaporations of ethyl acetate and methyl ethyl ketone, and from a solvent/antisolvent. […] Form A has a melting point of ˜177° C. and Form B has a melting point of ˜170° C.

[3] = Storage of Form C at high humidities; settings: stored at high humidities
Excerpt: and is observed when Form C is stored at high humidities. […] The lot used to generate this X-ray powder diffraction and Raman data may contain residual compound IV Form C.

- hygroscopicity [1]: non-hygroscopic
SMILES: O=C(N1CC2CC(C1)c1cc3nccnc3cc12)C(F)(F)F [Compound III Form A, 6,10-Methano-6H-pyrazino[2,3-h][3]benzazepine,7,8,9,10-tetrahydro-8-(trifluoroacetyl)]

SMILES: O=C(N1CC2CC(C1)c1cc([N+](=O)[O-])c([N+](=O)[O-])cc12)C(F)(F)F [Compound II Form B, 1,5-Methano-1H-3-benzazepine-2,3,4,5-tetrahydro-7,8-dinitro-3-(trifluoroacetyl)]
- form conversion upon heating ([2]; upon heating): converts to Form A upon heating

SMILES: O=C(N1CC2CC(C1)c1cc([N+](=O)[O-])c([N+](=O)[O-])cc12)C(F)(F)F [Compound II Form A, 1,5-Methano-1H-3-benzazepine-2,3,4,5-tetrahydro-7,8-dinitro-3-(trifluoroacetyl)]
- hygroscopicity [1]: non-hygroscopic
- relative stability of crystalline forms ([2]; ambient temperature and 60° C., dichloromethane, ethyl acetate, methanol, toluene): more stable than Form B

- formation of N-carboxyvarenicline adduct on storage [3]: observed
SMILES: c1cnc2cc3c(cc2n1)C1CNCC3C1 [Compound IV Form C]
